Literature values in patent US20200188436A1, “Compositions and Methods for Cancer Immunotherapy” (The UAB Research Foundation, priority 2016, published 2020).

Columns and labels:
[1] = tested on: diffuse large B-cell lymphoma (DLBCL); settings: phase II, DLBCL after autologous stem cell transplantation; preliminary results
recurrent multifocal GBM = settings: two pediatric patients, refractory to standard therapies, single agent

Substance | subjects alive [1] [%] | subjects progression-free at the end of the follow-up period [1] [%] | clinical response (recurrent multifocal GBM)
CT-011: humanized IgG1 monoclonal antibody against PD-1 | 82 | 70 | –
nivolumab: immune checkpoint inhibitor, anti-PD1 antibody | – | – | remarkable and durable responses
